Results published in PMC7053711, “A G protein–coupled receptor mediates neuropeptide-induced oocyte maturation in the jellyfish Clytia” (PLoS Biology, 2020).
Entries after “also recorded” stand apart in the source; their conditions may differ. Peptide text beside a SMILES is read from it.

Key:
Clytia MIHR = test: GPCR deorphanization assay, luminescence response to peptides at 1 μM (CHO-K1 cells, Gα-16, GFP-apoaequorin); type: cell-based, Clytia hemisphaerica; conditions: peptide 1E-6M, normalised to Platynereis FLamide receptor + 1 μM AKYFL-NH2, n = 3
From the text: We used a cell culture–based GPCR deorphanization assay to identify the MIH receptor from our candidate shortlist. cDNAs for each candidate were transfected into Chinese Hamster ovary K1 (CHO-K1) cells along with the promiscuous Gα protein Gα-16, and an aequorin-GFP luminescence reporter that measures Ca^2+ mobilization downstream of this heterologous Gα protein [27, 28]. We first screened the 16 candidate Clytia GPCRs against a mixture of 33 synthetic amidated peptides (including MIHs) predicted to be generated from previously identified putative Clytia neuropeptide precursors and one additional one identified from transcriptome data. Given our imperfect knowledge of pro-peptide processing in cnidarians, some of the synthetic peptides may not correspond to endogenous peptides. Only one of the 16 GPCRs was activated by this peptide mixture. This receptor responded well to all 4 synthetic Clytia MIH tetrapeptides, as well as to related Cladonema MIH peptides that can also activate Clytia oocyte maturation, but not to other Clytia peptide mixtures or poorly active MIH penta-/tripeptides. We termed this Clytia GPCR the Maturation Inducing Hormone Receptor (MIHR). The activity of individual peptides at 1 μM to stimulate the MIHR closely matched their in vivo ability to induce oocyte maturation (Fig 1B).
Cell culture GPCR ligand response assays were performed as described. Briefly, CHO-K1 cells were cultured in Ham’s F12 Nut Mix medium (Thermo Fisher Scientific) with 10% foetal bovine serum. Cells were seeded in 96-well plates at approximately 10,000 cells/well and transfected the following day with pcDNA3.1(+) plasmids encoding each of the 16 candidate Clytia GPCRs (S2 Text), the promiscuous Gα-16 protein [65], and a reporter construct GFP-apoaequorin [66] (60 ng each) using the transfection reagent TurboFect (Thermo Fisher Scientific). After 2 days of expression, the medium was removed and replaced with Hank’s balanced salt solution (HBSS) supplemented with 1.8 mM Ca2+, 10 mM glucose, and […] coelenterazine h (Promega, Madison, WI). After incubation at 37 °C for 2 hours, cells were tested by adding synthetic peptides (GenScript) in HBSS supplemented with 1.8 mM Ca2^+ and 10 mM glucose. A list of all synthetic peptides used is provided in S2 Table. Luminescence was recorded for 45 seconds in a plate reader (BioTek Synergy Mx or Synergy H4; BioTek, Winooski, VT). Data were integrated over the 45-second measurement period and recorded as technical triplicates in each case. Data were normalized using the response of Platynereis FLamide receptor to 1 μM AKYFL-NH2 [28]. Dose–response curves were obtained using concentrations between 0.01 nM and 100 μM for each peptide. Data for dose–response curves were recorded in triplicate for each concentration and the experiment was repeated independently 3 times. Dose–response curves were fitted with a four-parameter curve using Prism 6 (GraphPad, La Jolla, CA) and were normalized to the calculated upper plateau values (100% activation).
Supplementary file pbio.3000614.s011.xlsx: S1 Data Numerical data corresponding to Fig 1B. Raw luminescence values obtained in triplicate for each of the neuropeptide combinations tested against the MIHR in the deorphanization assay are provided. In the right-hand table, the raw luminescence values obtained in quadruple for the positive and negative controls are provided. In the lower table, means and standard errors of the mean of the luminescence values obtained for each neuropeptide combination and controls are also shown, as well as the values normalized to the positive control, which were used to prepare the graph shown in Fig 1B. MIHR, MIH receptor. (XLSX) Click here for additional data file.

[1] = tested on: MIHR mutant (n5-23, n5-13) isolated female gonads; test: Gonad spawning assay, MIHR mutant isolated gonads; parameters: species or system Clytia hemisphaerica; conditions: for Gonads spawning (number) / Percentage of spawning gonads: 0,1uM WPRPa, MIH R K.O.
Method: We performed a series of oocyte maturation and spawning assays, comparing the responses of wild-type and MIHR mutant isolated gonads and oocytes to different stimuli (Fig 4).
Sexually mature MIHR mutant medusae from colonies n5-13 and n5-23 and wild-type medusae were cultured on the same day–night cycle. Individual gonads were dissected in the evening after afternoon spawning. To test the light response, one group of each was transferred to 100 μL MFSW in wells of 96-well plastic plates, covered overnight, and re-exposed to white light the following day. To test responses to MIH and cAMP, other groups of dissected gonads were cultured overnight in constant light, then transferred to 96-well plastic plates for two hours. MIH was added to wells as an equal volume of 200 nM WPRPamide (GenScript) stock in MFSW was added to give a final concentration of 100 nM. Alternatively, a stock of 20 mM bromo adenosine 3′,5′cyclic monophosphate (Br-cAMP–Fluka; Sigma Aldrich) in distilled water was added to give a final concentration of 4 mM. Gonads were washed after 5 minutes incubation in Br-cAMP. Oocyte maturation was scored after 30 minutes as germinal vesicle breakdown (GVBD), i.e., visible dissolution of the oocyte nuclear membrane upon entry into M phase, which in all cases was followed by spawning about 1 hour later.
Supplementary file pbio.3000614.s013.xlsx: S3 Data Numerical data corresponding to Fig 4A and 4C. The first tab collects all the raw data from 3 independent gonad spawning assays. Information corresponding to the Fisher exact tests is also shown. […] The means and standard deviations were used to prepare the graph in Fig 4C. Information corresponding to the Fisher exact tests is also shown. (XLSX) Click here for additional data file.

[2] = WPRPa, pooled n=82, Fisher exact test vs WT significant at p < .01

N=C(N)NCCC[C@H](NC(=O)[C@@H]1CCCN1C(=O)[C@@H](N)Cc1c[nH]c2ccccc12)C(=O)N1CCC[C@H]1C(N)=O [WPRPa] (H-WPRP-NH2; N-terminus assumed)
Normalised response (to positive control), mean (Clytia MIHR): 0.381 | Gonads spawning (number) ([1]; replicate 1, total 29): 0 | Percentage of spawning gonads ([1]; replicate 1, total 29): 0 | Gonads spawning (number) ([1]; replicate 2, total 29): 0 | Percentage of spawning gonads ([1]; replicate 2, total 29): 0 | Gonads spawning (number) ([1]; replicate 3, total 24): 0 | Percentage of spawning gonads ([1]; replicate 3, total 24): 0 | Percentage of spawning gonads (summary) ([1]; WPRPa, MIHR K.O., summary of 3 replicates): 0 | Non-spawning gonads, MIHR KO NO [1, 2]: 82 | Spawning gonads, MIHR KO YES [1, 2]: 0 | oocyte maturation and spawning of MIHR mutant gonads, MIH treatment ([1]; isolated MIHR mutant gonads, 100 nM WPRPamide): MIHR mutant gonads did not respond; also recorded: No oocyte maturation or spawning was observed
